Measurements published in patent US12503452B2 (Curza Global, LLC, priority 2019, dated 2025).
Where two headings read alike, the source gives them in different places.

Experiments:
[1] = system: P. aeruginosa (Pa); test: Broth microdilution minimum inhibitory concentration (MIC); format: cell-based; settings: Pseudomonas aeruginosa, P. aeruginosa, read-out: Pa MIC + bicarb
Experimental: (§1) A certified BSL-2 laboratory was used for testing. Compounds were evaluated using the broth microdilution minimum inhibitory concentration (MIC) and minimum bactericidal concentration (MBC) assays defined by Clinical and Laboratory Standards Institute (CLSI) in the M26-A guideline against S. aureus (Sa), E. coli (Ec), K. pneumoniae (Kp), A. baumannii (Ab), E. faecalis (Ef) and P. aeruginosa (Pa).
(§2) MICs were determined using the Clinical Laboratory and Standards Institute (CLSI) Broth Microdilution Method with slight modification. Clinical and Laboratory Standards Institute (2012). “Methods for dilution antimicrobial susceptibility tests for bacteria that grow aerobically; approved standard, 9th ed. M07-A9. Clinical and Laboratory Standards Institute, Wayne, PA” Serial two-fold dilutions of compounds are prepared in sterile clear round-bottom 96-well plates.
(§3) To prepare microdilution trays, two-fold dilutions of antimicrobial agent are prepared in growth medium: Cation-Adjusted Mueller-Hinton Broth (CAMHB), or CAMHB supplemented with sodium bicarbonate (6.25 or 25 mM final concentration prepared from a 1.0M stock solution) or CAMHB supplemented with heat inactivated human serum (Fisher Cat. #BP2657100) 0-50% by adding 200 μL of the highest concentration to be tested (64 μg/mL, for example) in row A, mixing and transferring 100 μL from row A to 100 μL growth medium in row B, then repeating the mixing and transferring through row H of the 96-well plate, discarding the excess 100 μL remaining. This slight modification to the CLSI protocol enables evaluation of MICs for 3 compounds per plate in triplicate, albeit with only 8 compound dilutions (CLSI protocol enables 2 compounds in triplicate with 10 dilutions). Bacterial suspensions are added to a final concentration of 5×10^4 CFU/well by adding 5 μL of a 1:10 dilution of a 0.5 McFarland suspension (1×10^8 CFU/mL) for each bacterium evaluated. Bacterial suspensions were prepared using the growth method described by CLSI. Well-isolated colonies (3-5 from an agar plate) were selected using a sterile loop and used to inoculate a tube containing 4 mL of CAMHB. The cultures are incubated at 35±2° C. until it achieves or exceeds the turbidity of the 0.5 McFarland standard, determined by measuring A600nm (usually two to six hours). When growth exceeds a 0.5 McFarland standard, the turbidity is adjusted with broth to be equivalent to a 0.5 McFarland standard.

[2] = system: A. baumannii (Ab); test: as above; format: cell-based; settings: Acinetobacter baumannii, A. baumannii, read-out: Ab + bicarb MIC
Experimental: as §1, §2, §3

[3] = system: E. faecalis (Ef); test: as above; format: cell-based; settings: Enterococcus faecalis, E. faecalis, read-out: Ef + bicarb MIC
Experimental: as §1, §2, §3

[4] = system: E. coli (Ec); test: as above; format: cell-based; settings: Escherichia coli, E. coli, read-out: E. coli + bicarb MIC
Experimental: as §1, §2, §3

[5] = molecular target: Rabbit Reticulocyte Lysate (eukaryotic protein synthesis); test: Rabbit reticulocyte lysate luciferase assay (inhibition of eukaryotic protein synthesis); format: biochemical; settings: read-out: Rabbit reticulocyte IC50 (μM/% inhib.)
Procedure, shortened: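 Nuclease-treated rabbit reticulocyte lysate translating luciferase control RNA, with complete amino acids, was incubated at 30° C. for 90 minutes with 2-fold serial compound dilutions. Luminescence was measured after adding luciferase reagent. % inhibition was relative to water controls, with no-RNA wells as background.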

[6] = system: E. coli S30 extract (bacterial protein synthesis); test: E. coli S30 extract coupled transcription-translation luciferase assay (inhibition of bacterial protein synthesis); format: biochemical; settings: read-out: S30 IC50 (μM/% inhib.)
Procedure, shortened: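 Cell-free coupled transcription-translation in E. coli S30 circular-DNA extract, with pBESTluc plasmid as template and complete amino acid mix. Eight 2-fold compound dilutions were incubated with the extract 1 h at 37 °C, chilled, then luciferase luminescence was read. % inhibition was taken relative to no-inhibitor wells; no-DNA wells gave background.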

[7] = growth medium with sodium bicarbonate
[8] = class by IC50 or % inhibition @ 1 μM
[9] = growth medium supplemented with sodium bicarbonate

Row | SMILES | MIC [1, 7] [µg/mL] | MIC [2, 7] [µg/mL] | MIC [3, 7] [µg/mL] | MIC [4, 7] [µg/mL] | IC50 [5, 8] [µM] | IC50 [6, 8] [µM] | MIC [2, 9] [µg/mL] | MIC [3, 9] [µg/mL] | IC50 ([5]; % inhibition @ 1 μM) [µM] | IC50 ([6]; % inhibition @ 1 μM) [µM] | MIC [1, 9] [µg/mL] | MIC [4, 9] [µg/mL]
1 | CC1CN(Cc2ccc(-n3ccc(NC(=O)N4CCN(C(=O)[C@@](C)(N)CO)CC4)nc3=O)cc2)CCC1N (stereo partly drawn) [Compound 223] | > 32 | > 32 | < 8 | < 8 | > 1 | 0.5 to 1 |  |  |  |  |  | 
2 | CC(N)[C@H]1CCN(Cc2ccc(-n3ccc(NC(=O)N4CCN(C(=O)C(C)(C)N)CC4)nc3=O)cc2)C1 (stereo partly drawn) [Compound 45] |  |  |  |  | > 1 | < 0.5 | > 32 | < 8 |  |  |  | 
3 | CC(C)(N)C(=O)N1CCN(C(=O)Nc2ccn(-c3ccc(CNCC4(O)CNC4)cc3)c(=O)n2)CC1 [Compound 376] | > 32 | > 32 |  | < 8 |  |  |  |  | > 1 | < 0.5 |  | 
4 | C[C@@H]1CN(C(=O)[C@@](C)(N)CO)CCN1C(=O)Nc1ccn(-c2ccc(CN3CCC(N)CC3)cc2)c(=O)n1 [Compound 89] |  |  |  |  | > 1 | < 0.5 | > 32 | > 32 |  |  |  | 
5 | CC(C)(N)C(=O)N1CCN(C(=O)Nc2ccn(-c3ccc(CN4CC(CCN)C4)cc3)c(=O)n2)CC1 [Compound 134] |  |  |  |  | > 1 | < 0.5 | > 32 | 8 to 32 |  |  | > 32 | < 8
6 | Cc1cc(-n2ccc(NC(=O)N3CCN(C(=O)C(C)(C)N)CC3)nc2=O)ccc1CN1CCC(N)CC1 [Compound 91] |  |  |  |  | > 1 | < 0.5 | > 32 | < 8 |  |  | > 32 | < 8
7 | CC(C)(N)C(=O)N1CCN(C(=O)Nc2ccn(-c3ccc(CN4CC(CN)C4)cc3)c(=O)n2)CC1 [Compound 133] |  |  |  |  | > 1 | < 0.5 | > 32 | > 32 |  |  |  | 
8 | CC(C)(N)C(=O)N1CCN(C(=O)Nc2ccn(-c3ccc(CN4CCC(N)CC4)cc3)c(=O)c2)[C@H](C(=O)O)C1 [Compound 64] |  |  |  |  | > 1 | < 0.5 |  |  |  |  | > 32 | > 32
9 | CC(C)(N)C(=O)N1CCN(C(=O)Nc2ccn(-c3cccc(CCN4CCC(N)CC4)c3)c(=O)n2)CC1 [Compound 2] |  |  |  |  | > 1 | < 0.5 |  |  |  |  | > 32 | 8 to 32
10 | NC1CCN(Cc2ccc(-n3ccc(NC(=O)N4CC(N)C4)nc3=O)cc2)CC1 [Compound 49] |  |  |  |  | > 1 | > 1 | > 32 |  |  |  | > 32 | > 32
11 | C[C@](N)(CO)C(=O)N1CCN(C(=O)Nc2ccn(-c3ccc(CCN4CCC[C@@H](N)C4)cc3)c(=O)n2)CC1 [Compound 12] |  |  |  |  | > 1 | 0.5 to 1 | > 32 |  |  |  | > 32 | > 32
12 | CC(N)[C@@H]1CCN(CCc2ccc(-n3ccc(NC(=O)N4CCN(C(=O)C(C)(C)N)CC4)nc3=O)cc2)C1 (stereo partly drawn) [Compound 43] |  |  |  |  | > 1 | < 0.5 | > 32 | 8 to 32 |  |  | 8 to 32 | < 8
13 | CC(C)(N)C(=O)N1CCN(C(=O)Nc2ccn(-c3ccc(CN4CCC(N)CC4)cc3)c(=O)n2)C(c2ccccc2)C1 (stereo not drawn) [Compound 59] |  |  |  |  | > 1 | > 1 | > 32 |  |  |  | > 32 | > 32
14 | CC(N)[C@@H]1CCN(Cc2ccc(-n3ccc(NC(=O)N4CCN(C(=O)C(C)(C)N)CC4)nc3=O)cc2)C1 (stereo partly drawn) [Compound 44] |  |  |  |  | > 1 | < 0.5 | > 32 | < 8 |  |  |  | 
15 | C[C@@H]1CN(CCc2ccc(-n3ccc(NC(=O)N4CCN(C(=O)C(C)(C)N)CC4)nc3=O)cc2)CC[C@H]1N [Compound 41] |  |  |  |  | > 1 | < 0.5 | > 32 | 8 to 32 |  |  |  | 
16 | CC(N)C1CCN(CCc2ccc(-n3ccc(NC(=O)N4CCN(C(=O)C(C)(C)N)CC4)nc3=O)cc2)CC1 (stereo not drawn) [Compound 168] |  | > 32 | 8 to 32 |  | > 1 | < 0.5 |  |  |  |  |  | 
17 | CC(C)(N)C(=O)N1CCN(C(=O)Nc2ccn(-c3ccc(CN4CCC(N)CC4)c(Cl)c3)c(=O)n2)CC1 [Compound 99] |  |  |  |  | > 1 | < 0.5 |  |  |  |  | > 32 | < 8
18 | C[C@](N)(CO)C(=O)N1CCN(C(=O)Nc2ccn(-c3cc(CN4CCC(N)CC4)cc(OC(F)(F)F)c3)c(=O)n2)CC1 [Compound 103] |  |  |  |  | > 1 | > 1 | > 32 |  |  |  |  | > 32
19 | C[C@@H]1CN(C(=O)Nc2ccn(-c3ccc(CN4CCC(N)CC4)cc3)c(=O)n2)[C@@H](C)CN1C(=O)C(C)(C)N [Compound 74] |  |  |  |  | > 1 |  | > 32 |  |  |  | > 32 | > 32
20 | C[C@](N)(CO)C(=O)N1CCN(C(=O)Nc2ccn(-c3ccc(CCN4CCCC(N)CC4)cc3)c(=O)n2)CC1 (stereo partly drawn) [Compound 381] |  |  |  | < 8 |  |  |  |  | > 1 | < 0.5 |  | 
21 | C[C@@H]1CN(C(=O)Nc2ccn(-c3ccc(CN4CCC(CN)CC4)cc3)c(=O)n2)CCN1C(=O)C(C)(C)N [Compound 65] |  |  |  |  | > 1 | < 0.5 |  |  |  |  | > 32 | < 8
22 | C[C@H]1CN(C(=O)C(C)(C)N)CCN1C(=O)Nc1ccn(-c2ccc(CN3CCC(N)CC3)cc2)c(=O)n1 [Compound 56] |  |  |  |  | > 1 | < 0.5 |  |  |  |  | > 32 | < 8
23 | CC(C)(N)C(=O)N1CCN(C(=O)Nc2ccn(-c3ccc(CN4CCC(CCN)CC4)cc3)c(=O)n2)CC1 [Compound 218] |  |  |  | < 8 | > 1 | < 0.5 |  |  |  |  |  | 
24 | CC(C)(N)C(=O)N1CCN(C(=O)Nc2ccn(-c3ccc(CN4CCC[C@H](N)C4)cc3)c(=O)n2)CC1 [Compound 237] |  |  |  | < 8 | > 1 | 0.5 to 1 |  |  |  |  |  | 
25 | CC(C)(N)C(=O)N1CCN(C(=O)Nc2ccn(-c3ccc(CN4CCCCC(N)C4)cc3)c(=O)n2)CC1 (stereo not drawn) [Compound 240] |  |  |  | > 32 | > 1 | 0.5 to 1 |  |  |  |  |  | 
